According to patent US7341750B2, “Compound isolated from Ginkgo biloba bark, isolation method thereof and antiplatelet composition containing the same” (Candleflower Co., Ltd., priority 2006, dated 2008):
Read-outs that look alike come from different tables or passages of the source.

Assays:
Format in all cases: cell-based
[1] = test system: collagen-stimulated platelet aggregation; assay: Collagen-stimulated platelet aggregation in concentrated human platelet-rich plasma (aggregometer); details: human concentrated PRP; for IC50: aggregation factor collagen 10 μg/ml, 37° C., read-out: IC50 antiplatelet aggregation activity, Collagen
Description: To measure the activity against collagen-stimulated platelet aggregation of the novel compound identified from the Ginkgo biloba bark, concentrated human platelet-rich-plasma (PRP) was first prepared. The PRP used in the present invention was obtained by collecting blood from volunteers in Hallym University Medical Center, centrifuging the blood at 1,000 rpm and room temperature for 10 minutes to collect pure supernatant PRP and centrifuging the supernatant PRP at 3,000 rpm and room temperature for 10 minutes. The obtained PRP was separated into platelet-poor plasma (PPP) and platelets (PLTs). Then, concentrated PRP was prepared in the following manner. That is, platelets (PLTs) were suspended in a suitable amount of the supernatant PPP and measured for absorbance at 660 nm using a UV/visible spectrophotometer. Based on the measured absorbance, the suspension was further diluted with an excess of PPP to prepare concentrated PRP containing 5×10^8 platelets/ml. Herein, an OD value of 1.1 at 660 nm means 1×10^8 PLTs. A washing buffer used in the present invention was a pH 6.5 buffer containing 129 mM NaCl, 10.9 mM sodium citrate dihydrate, 8.9 mM NaHCO3, 1 mg/ml glucose, 10 mM tris-hydroxymethylaminomethane, 2.8 mM KCl, 0.8 mM KH2PO4 and 2 mM EDTA. Also, a suspension buffer used in this test example was a pH 6.9 buffer, which was the same as said washing buffer, except that it contained no EDTA. The platelet aggregation inhibitory effect of the novel compound was examined using the prepared concentrated PRP in the following manner. First, the concentrated PRP was used to make 500 μl of an in vitro reaction system. For use as a control group, the concentrated PRP was stabilized at 37° C. for 3 minutes and treated with collagen (Chrono-LogCo.) as a stimulating agent at a concentration of 10 μg/ml, and the aggregation of platelets in the reaction system was induced for 5 minutes. Meanwhile, the same reaction system as described above was treated with the novel compound, was allowed to react with the novel compound for 3 minutes, was stimulated with collagen for 6 minutes according to the same method as described above so as to induce platelet aggregation, and then was measured for aggregated platelets. The aggregation of platelets was measured with a change in light transmission using an aggregometer (Chrono-Log Co.) at 37° C. The measurement results are shown in Table 1 below and FIGS. 6, 7 and 8. Table 1 summarizes the antiplatelet aggregation activities of aspirin, the novel compound and ginkgolide A and B against platelet aggregation factors, including ADP, collagen and arachidonic acid. […] In the case of the group treated with the novel compound, when arachidonic acid was used as the aggregation factor, the aggregation of platelets occurred only upon stimulation with 1,000 μM (i.e., 1 mM) or higher concentration of arachidonic acid.

[2] = test system: ADP-induced platelet aggregation; assay: ADP-stimulated platelet aggregation in concentrated human platelet-rich plasma (aggregometer); details: aggregation factor ADP, human concentrated PRP, —: no effect
Description: (§1) To measure the activity against collagen-stimulated platelet aggregation of the novel compound identified from the Ginkgo biloba bark, concentrated human platelet-rich-plasma (PRP) was first prepared. The PRP used in the present invention was obtained by collecting blood from volunteers in Hallym University Medical Center, centrifuging the blood at 1,000 rpm and room temperature for 10 minutes to collect pure supernatant PRP and centrifuging the supernatant PRP at 3,000 rpm and room temperature for 10 minutes. The obtained PRP was separated into platelet-poor plasma (PPP) and platelets (PLTs). Then, concentrated PRP was prepared in the following manner. That is, platelets (PLTs) were suspended in a suitable amount of the supernatant PPP and measured for absorbance at 660 nm using a UV/visible spectrophotometer. Based on the measured absorbance, the suspension was further diluted with an excess of PPP to prepare concentrated PRP containing 5×10^8 platelets/ml. Herein, an OD value of 1.1 at 660 nm means 1×10^8 PLTs. A washing buffer used in the present invention was a pH 6.5 buffer containing 129 mM NaCl, 10.9 mM sodium citrate dihydrate, 8.9 mM NaHCO3, 1 mg/ml glucose, 10 mM tris-hydroxymethylaminomethane, 2.8 mM KCl, 0.8 mM KH2PO4 and 2 mM EDTA. Also, a suspension buffer used in this test example was a pH 6.9 buffer, which was the same as said washing buffer, except that it contained no EDTA. The platelet aggregation inhibitory effect of the novel compound was examined using the prepared concentrated PRP in the following manner. First, the concentrated PRP was used to make 500 μl of an in vitro reaction system. For use as a control group, the concentrated PRP was stabilized at 37° C. for 3 minutes and treated with collagen (Chrono-LogCo.) as a stimulating agent at a concentration of 10 μg/ml, and the aggregation of platelets in the reaction system was induced for 5 minutes. Meanwhile, the same reaction system as described above was treated with the novel compound, was allowed to react with the novel compound for 3 minutes, was stimulated with collagen for 6 minutes according to the same method as described above so as to induce platelet aggregation, and then was measured for aggregated platelets. The aggregation of platelets was measured with a change in light transmission using an aggregometer (Chrono-Log Co.) at 37° C. The measurement results are shown in Table 1 below and FIGS. 6, 7 and 8. Table 1 summarizes the antiplatelet aggregation activities of aspirin, the novel compound and ginkgolide A and B against platelet aggregation factors, including ADP, collagen and arachidonic acid. […]

[3] = test system: arachidonic acid-stimulated platelet aggregation; assay: Arachidonic acid-stimulated platelet aggregation in concentrated human platelet-rich plasma (aggregometer); details: for arachidonic acid-stimulated platelet aggregation in treated groups: groups treated with the compound
Description: as §1

[4] = arachidonic acid as aggregation factor

Row | Structure (SMILES) | IC50 ([1]; Platelet) | inhibitory activity on collagen-stimulated platelet aggregation (FIGS. 6-8) [1] | IC50 ([2]; Platelet, read-out: IC50 antiplatelet aggregation activity, ADP) | IC50 [1] | arachidonic acid-stimulated platelet aggregation in treated groups [3, 4] | IC50 antiplatelet aggregation activity, ADP [2] | IC50 ([3]; Platelet, aggregation factor arachidonic acid, human concentrated PRP, —: no effect, read-out: IC50 antiplatelet aggregation activity, AA) | concentration of arachidonic acid at which aggregation of platelets occurred in the treated group ([3]; arachidonic acid as aggregation factor, group treated with the compound)
1 | CC(=O)Oc1ccccc1C(=O)O [Aspirin] | 203 µM | inhibited platelet aggregation in a concentration-dependent manner | 316 µM | – | – | – | – | –
2 | C[C@@H]1C(=O)O[C@H]2C[C@@]34[C@H]5C[C@@H](C(C)(C)C)[C@]36[C@@H](OC(=O)[C@@H]6O)O[C@@]4(C(=O)O5)[C@]21O [Gingkolide A] | – | inhibited collagen-stimulated platelet aggregation in a concentration-dependent manner | – | 482 µM | did not occur | did not show an effect | – | –
3 | C[C@@H]1C(=O)O[C@H]2[C@@H](O)[C@@]34[C@H]5C[C@@H](C(C)(C)C)[C@]36[C@@H](OC(=O)[C@@H]6O)O[C@@]4(C(=O)O5)[C@@]12O [Gingkolide B] | – | inhibited collagen-stimulated platelet aggregation in a concentration-dependent manner | – | 480 µM | did not occur | did not show an effect | – | –
4 | COc1cc(-c2oc3cc(OC)c(CCCO)cc3c2C=O)ccc1O [Novel compound, 5-(3-hydroxyprophyl)-6-methoxy-2-(3′-methoxy-4′-hydroxyphenyl)-3-benzo[b]furancarbaldehyde] | 680 µM | inhibited collagen-stimulated platelet aggregation in a concentration-dependent manner | – | – | – | did not show an effect | > 1000 µM | ≥ 1,000 μM
